Experimental data published in ChEMBL document CHEMBL1938252, “Structure-based optimization of morpholino-triazines as PI3K and mTOR inhibitors” (Bioorg Med Chem Lett, 2012).
pIC50: −log10 of the molar value.

How the values were obtained:
[1] = biological target: T1, Serine/threonine-protein kinase mTOR (Homo sapiens, UniProt P42345); assay: Inhibition of mTOR-mediated p70S6K phosphorylation at Thr389 in human PC3 cells; format: cell-based, PC-3
[2] = Selectivity ratio of IC50 for PI3Kaplha to IC50 for mTOR
[3] = biological target: Phosphatidylinositol 4,5-bisphosphate 3-kinase catalytic subunit alpha isoform (Homo sapiens, UniProt P42336); assay: Inhibition of PI3Kalpha
Phosphatidylinositol 4,5-bisphosphate 3-kinase catalytic subunit alpha isoform, sequence (P42336 whole entry, canonical isoform): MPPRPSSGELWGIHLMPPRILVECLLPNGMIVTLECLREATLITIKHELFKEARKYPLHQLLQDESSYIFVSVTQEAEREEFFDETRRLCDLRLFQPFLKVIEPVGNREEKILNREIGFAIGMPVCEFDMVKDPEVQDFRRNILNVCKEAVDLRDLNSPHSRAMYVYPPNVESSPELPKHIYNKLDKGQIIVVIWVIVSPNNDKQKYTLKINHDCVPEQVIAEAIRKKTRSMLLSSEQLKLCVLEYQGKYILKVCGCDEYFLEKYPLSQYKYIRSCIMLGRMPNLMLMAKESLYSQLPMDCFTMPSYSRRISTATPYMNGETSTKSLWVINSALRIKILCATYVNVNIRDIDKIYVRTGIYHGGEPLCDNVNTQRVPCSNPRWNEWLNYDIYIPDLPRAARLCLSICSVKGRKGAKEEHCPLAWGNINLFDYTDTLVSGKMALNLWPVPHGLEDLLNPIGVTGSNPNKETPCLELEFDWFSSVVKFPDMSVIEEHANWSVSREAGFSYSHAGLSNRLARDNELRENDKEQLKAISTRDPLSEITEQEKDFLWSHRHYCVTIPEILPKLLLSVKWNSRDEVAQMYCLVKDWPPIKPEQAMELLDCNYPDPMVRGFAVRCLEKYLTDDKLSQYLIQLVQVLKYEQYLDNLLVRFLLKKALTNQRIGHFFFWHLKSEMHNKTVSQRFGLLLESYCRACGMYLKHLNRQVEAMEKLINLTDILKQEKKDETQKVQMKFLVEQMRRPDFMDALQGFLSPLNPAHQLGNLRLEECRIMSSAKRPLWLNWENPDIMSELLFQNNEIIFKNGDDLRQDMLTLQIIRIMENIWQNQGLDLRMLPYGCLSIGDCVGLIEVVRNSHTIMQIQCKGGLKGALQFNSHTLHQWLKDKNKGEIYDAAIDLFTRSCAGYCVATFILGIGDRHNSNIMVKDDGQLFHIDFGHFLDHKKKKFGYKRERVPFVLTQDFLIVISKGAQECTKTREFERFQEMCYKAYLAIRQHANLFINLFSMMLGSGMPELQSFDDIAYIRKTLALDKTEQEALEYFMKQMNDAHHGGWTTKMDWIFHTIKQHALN

[4] = biological target: T1, Serine/threonine-protein kinase mTOR; assay: Inhibition of mTOR

Structure (SMILES) | pIC50 [1] | Ratio IC50 [2] | pIC50 [3] | pIC50 [4]
CCc1nccn1-c1nc(-c2cccc3[nH]ccc23)nc(N2CCOCC2)n1 | 7.02 | 3.4 | 7.05 | 7.59
Cc1ccc(-c2nc(N3CCOCC3)nc(-n3ccnc3C)n2)c2cc[nH]c12 | 7.08 | 60 | 5.96 | 7.74
Cc1nccn1-c1nc(-c2cnc(N)nc2)nc(N2CCOCC2)n1 |  | 0.06 | 7.60 | 6.38
FC(F)c1nc2ccccc2n1-c1nc(N2CCOCC2)nc(N2CCOCC2)n1 [ZSTK-474] |  |  |  | 6.46
Clc1cccc(Nc2nc(N3CCOCC3)nc(-n3cccn3)n2)c1 |  | 4.9 | 5.55 | 6.24
Cc1nccn1-c1nc(-c2cccc(O)c2)nc(N2CCOCC2)n1 |  | 0.6 | 7.28 | 7.02
CCc1cc(C(F)(F)F)nn1-c1nc(-c2cccc3[nH]ccc23)nc(N2CCOCC2)n1 | 6.31 | 57 | 5.39 | 7.15
